“Also recorded” adds a separate entry of the source.
How the values were obtained:
HPV18 [1] = assay: Stable maintenance of HPV18 in U2OS #1.13 cells, subconfluent; assay type: cell-based; conditions: U2OS #1.13, subconfluent, 7 days
Description: (§1) FIG. 3 Effect of compounds on stable maintenance and vegetative amplification of HPV18. A: U2OS #1.13 cells were grown in subconfluent conditions in the presence of the identified five compounds for 7 days. Genomic DNA was extracted, linearized and HPV replication signal was detected by Southern Blot and B: quantified by phosphoimager. C: U2OS #1.13 were seeded and grown for 5 days without splitting. On the 5th day indicated concentrations of compounds were added to the media and the cells were grown for additional 7 days without splitting. On the 12th day genomic DNA was extracted, linearized and HPV replication signal was detected by Southern Blot and D: quantified by phosphoimager. Error-bars represent standard deviations from at least two independent experiments.
Our U2OScell-based system is suitable for studying all three replication stages of various HPV subtypes. Stable maintenance phase could be monitored by maintaining HPV-positive cells in subconfluent conditions. We used HPV18 positive monoclonal U2OS cell-line #1.13 with viral copy number ˜2000. We grew the #1.13 cells in the presence of various concentration of compounds in subconfluent conditions (cells were split every three days) for 7 days. HPV18 replication signal was detected by Southern blot analyses and quantified with phosphoimager. About 50% of the signal was lost in case of compound 82269 compared to the DMSO control (FIG. 3, panel A, compare lanes 4-6 with lane 15 and panel B).

HPV18E1E2 mutant genome = HPV18E1E2 mutant genome replicated by HPV11 E1 and E2 in U2OS cells; assay type: cell-based, HPV18; conditions: U2OS co-transfected with HPV18E1E2 mutant and HPV11 wt minicircle, 5 days
From the text: Besides oncoproteins E6 and E7, HPVs differ from replication proteins E1 and E2 as well. To determine if the compounds identified here inhibit the replication of HR but not LR or cutaneous HPVs through E1 or E2, HPV18E1E2 mutant genome (deficient in replication due to mutations in the ORFs of E1 and E2) was replicated by E1 and E2 proteins originating from HPV11. HPV18E1E2 mutant genome alone was used as control. U2OS cells were co-transfected with HPV18E1E2 mutant and HPV11 wt mini circle genome and the cells were grown in the presence of compound 305831 for 5 days, media was changed on the 3rd day. DMSO was added as vehicle control. Genomic DNA was extracted, HPV DNA was digested with AgeI, SdaI and DpnI. HPV replication was detected by Southern Blot analyses. Results on FIG. 7 show, that HPV18E1E2 mutant genome is indeed replication-deficient when transfected alone (lane 7). […] The activity of LR-HPV E1 and E2 proteins or their interactome seem to be different compared to HR-HPV replication proteins.

HPV18 [2] = assay: Vegetative amplification of HPV18 in U2OS #1.13 cells, confluent; assay type: cell-based; conditions: U2OS #1.13, confluent, compounds added on 5th day for additional 7 days
Description: as §1
If #1.13 is grown in confluent conditions for at least 5 days, vegetative amplification of HPV genome is turned on. We seeded equal amounts of cells onto plates and grew them for 5 days without splitting. On the 5th day various concentrations of compound were added and the cells were grown for additional 7 days (media was changed every two days throughout the experiment). HPV replication signal was detected by Southern Blot analyses and quantified with phosphoimager.

Tdp = Tdp (Homo sapiens, UniProt Q9NUW8); conditions: known from the literature; cited from earlier work
HPV18 [3] = assay: HPV18 replication in U2OS-EBNA1 cells, compounds alone or with CPT; assay type: cell-based; conditions: U2OS-EBNA1, with 2 nM CPT, 5 days
Description: FIG. 5 Synergistic effect between Camptothecin (CPT) and the identified five compounds. U2OS-EBNA1 cells were transfected with HPV18 wt and oriP plasmids and grown in the presence of indicated concentrations of the compounds alone or together with 2 nM CPT for 5 days. Genomic DNA was extracted, linearized and digested with DpnI. Both HPV18 and oriP replication signals were detected with Southern Blot and quantified by phosphoimager. […] Error-bars represent standard deviations from at least three independent experiments.
(§2) Replication assay. The U2OS or U2OS-EBNA1 cells were transfected with 2 ug of HPV18 minicircle genome and lug of oriP plasmid (only in case of U2OS-EBNA1 cells). All the compounds were added to the media immediately after the transfection and media was changed on the third day. Replication signals were detected with Southern Blot method. Briefly, genomic DNA was extracted 3 and 4 days after the transfection with sh_RNAs or with the use of ABT-888 and 5 days after for analyses of the effects of HPV inhibitors w/wo CPT. DNA was digested with BglI and DpnI for analyses of HPV18 replication and with BstXI, ScaI and DpnI for analyses of HPV18 and oriP replication simultaneously. 3 ug of DNA was resolved in agarose gel, transferred to a nylon membrane (Membrane Solutions LLC) and hybridized with specific radioactively labeled probes. Signals were detected and quantified with Typhoon Trio+ phosphoimager (GE Healthcare) and exposed on an X-ray film (AGFA).
Synergistic effect of Campthotecin (CPT) and HPV18 replication inhibitors. CPT is a Topoisomerase I inhibitor that stabilizes entrapped Top1cc complexes to DNA. Since Tdp1 is responsible for cleaving entrapped Top1cc complexes from DNA, synergistic effect between CPT and Tdp1 inhibitors occurs. In the experiments shown in FIG. 5 we used U2OS cells constitutively expressing Epstein Barr virus (EBV) EBNA1 protein—U2OS-EBNA1. These cells allow to monitor HPV and EBNA1 supported oriP plasmid replication simultaneously. […] U2OS-EBNA1 cells were cotransfected with HPV18 genome and oriP plasmid and the cells were grown in the presence of various concentrations of the identified HPV inhibitors alone or together with 2 nM of CPT for 5 days, DMSO was used as vehicle control.

HPV18 [4] = assay: HPV18 initial amplification replication assay in U2OS cells (Southern Blot); assay type: cell-based
From the text: FIG. 2 Effect of the identified five compounds on HPV18 initial amplification. A: U2OS cells were transfected with HPV18 wt minicircle and grown in the presence of the compounds with indicated concentrations for 5 days. Genomic DNA was extracted, linearized, and digested with DpnI. HPV genome replication signals were detected using Southern Blot analyses and quantified with phosphoimager and expressed relative to vehicle control (DMSO). Approximate IC50 values are shown for each compound. Error-bars represent standard deviation from at least three independent experiment. B: U2OS cells were transfected with the expression vectors of HPV18 E1 and E2 proteins together with HPV18 URR (origin) minicircle plasmid. The cells were grown in the presence of the compounds with indicated concentrations for 24 or 48 hours. Genomic DNA was extracted, linearized and digested with DpnI. HPV URR replication signals were detected by Southern Blot analyses. DMSO serves as vehicle control and M 18URR serves as size marker.
as §2
for compounds inhibiting initial amplification of HPV18 genome in U2OS cells. HT-screening was conducted with all the compounds in this library in 5 uM and 1 uM concentrations and it gave us 80 hits (approximately 5% of analyzed compounds). After validation of the hits on HPV18 wt genome, we found five compounds inhibiting initial amplification of HPV18 in U2OS cells (FIG. 1). To further characterize the compounds, we performed replication assay described in Example 1.

Tdp, sequence (Q9NUW8 whole entry): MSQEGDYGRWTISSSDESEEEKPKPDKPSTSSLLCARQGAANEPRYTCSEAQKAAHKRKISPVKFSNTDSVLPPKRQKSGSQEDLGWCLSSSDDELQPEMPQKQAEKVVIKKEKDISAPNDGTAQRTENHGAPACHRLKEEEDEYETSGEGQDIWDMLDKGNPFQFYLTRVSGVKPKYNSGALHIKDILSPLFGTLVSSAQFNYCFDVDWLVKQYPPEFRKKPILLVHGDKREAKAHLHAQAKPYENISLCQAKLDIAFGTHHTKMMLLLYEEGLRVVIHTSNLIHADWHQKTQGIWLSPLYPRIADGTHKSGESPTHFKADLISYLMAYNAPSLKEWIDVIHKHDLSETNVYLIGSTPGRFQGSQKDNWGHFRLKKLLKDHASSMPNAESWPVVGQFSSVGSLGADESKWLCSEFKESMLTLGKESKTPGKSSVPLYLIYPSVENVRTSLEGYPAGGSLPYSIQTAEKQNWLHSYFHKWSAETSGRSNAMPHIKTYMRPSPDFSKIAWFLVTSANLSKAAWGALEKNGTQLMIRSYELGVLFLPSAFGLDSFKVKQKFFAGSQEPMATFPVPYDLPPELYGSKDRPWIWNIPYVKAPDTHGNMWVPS

## [H]/N=C(\N)c1ccc(-c2ccc(-c3ccc(C(=N)N)cc3)o2)cc1 [NSC 305831]
HPV18 [1]
  effect on stable maintenance of HPV18: clearly inhibit
HPV18 [1]; compared to DMSO control
  HPV18 replication signal lost: about 70%
HPV18E1E2 mutant genome
  HPV18 replication carried out by E1 and E2 proteins originating from HPV11: no inhibition of HPV18 replication
HPV18 [2]
  effect on vegetative amplification of HPV18: almost completely abolished amplification; also recorded: clearly inhibit
Tdp
  Tdp inhibition: known to inhibit Tdp
HPV18 [3]
  synergistic effect together with CPT on HPV18 replication: clear concentration dependent synergistic effect; also recorded: clear synergistic inhibition
HPV18 [4]; 120 h, read-out: IC50 of HPV18 initial amplification
  IC50: 2.5 to 60 µM
HPV18 [4]; HPV18 wt minicircle, 5 days, Southern Blot, relative to DMSO
  inhibition of HPV18 initial amplification: concentration-dependent inhibition
